Experimental data reported in patent US12466831B2, “Substituted amino triazolopyrimidine and amino triazolopyrazine adenosine receptor antagonists, pharmaceutical compositions and their use” (Merck Sharp & Dohme LLC, priority 2018, dated 2025).

Assays:
[1] = molecular target: T1, human A2a adenosine receptor (Homo sapiens, UniProt P29274); experiment: A2a binding affinity using radioligand binding, Method (A); details: Method (A): [3H]SCH58261 filtration binding, membranes expressing human A2a
T1 construct: purchased Perkin Elmer RBHA2aM400UA; host or cells: HEK293 or CHO cells (recombinant expression)
From the text: (§1) Method (A) describes the procedure used to measure A2a binding affinity using radioligand binding. Method (B) describes the procedure used to measure A2a binding affinity using SPA technology. The method used to measure A2b binding affinity is also described below. The method used to determine the A2a IC50 value reported for each compound in the table is indicated next to the reported value. The A2b IC50 value measured using the A2b binding affinity assay is shown in the table next to the compound under the corresponding A2a value.
The A2a receptor affinity binding assay measured the amount of binding of a tritiated ligand with high affinity for the A2a adenosine receptor to membranes made from HEK293 or CHO cells recombinantly expressing the human A2a adenosine receptor, in the presence of varying concentrations of a compound of the invention. The data were generated using either filtration binding or a homogenous scintillation proximity assay (SPA).
Method (A): Measurement of A2a Binding Affinity Using Radioligand Binding
148 μL (5 μg/mL) membranes (Perkin Elmer, Cat. No. RBHA2aM400UA) and 2 μL compounds of the invention to be tested (test compound) were transferred to individual wells of a 96-well polypropylene assay plate and incubated for 15 to 30 minutes at room temperature. [^3H] SCH58261 ((7-(2-phenylethyl)-5-amino-2-(2-furyl)-pyrazolo-[4,3-e]-1,2,4-triazolo[1,5-c]pyrimidine)) was diluted in assay buffer (50 mM Tris pH 7.4, 10 mM MgCl2, 0.005% Tween20) to a concentration of 4 nM and 50 μL transferred to each well of the assay plate. To define total and non-specific binding, wells containing 1% DMSO and 1 μM ZM241385 (Tocris Bioscience, Cat. No. 1036) respectively, were also included. The assay plate was incubated at room temperature for 60 minutes with agitation. Using a FilterMate Harvester® (Perkin Elmer), the contents of the assay plate were filtered through a UniFilter-96® PEI coated plate (Perkin Elmer Cat. No. 6005274 or 6005277). Filtering was achieved by aspirating the contents of the assay plate for 5 seconds, then washing and aspirating the contents three times with ice-cooled wash buffer (50 mM Tris-HCl pH 7.4, 150 mM NaCl) and allowing the vacuum manifold to dry the plate for 30 seconds. The filter plate was incubated for at least 1 hour at 55° C. and allowed to dry. The bottom of the filter plate was sealed with backing tape. 40 μL Ultima Gold™ (Perkin Elmer, Cat. No. 6013329) was added to each well of the filter plate and the top of the plate was sealed with TopSeal-A PLUS® clear plate seal (Perkin Elmer, Cat. No. 6050185). The plate was incubated for at least 20 minutes, and then the amount of radioactivity remaining in each well was determined using a TopCount® (Perkin Elmer) scintillation counter. After normalization to total and non-specific binding, the percent effect at each compound concentration was calculated. The plot of percent effect versus the log of compound concentration was analyzed electronically using a 4-parameter logistic fit based on the Levenberg-Marquardt algorithm to generate IC50 values.

[2] = molecular target: T2, human A2b adenosine receptor (Homo sapiens, UniProt P29275); experiment: A2b binding affinity, radioligand filtration binding assay; details: tritiated proprietary A2b antagonist, HEK293 membranes expressing human A2b
T2 construct: purchased Perkin Elmer ES-013-C; host or cells: HEK293 cells recombinantly expressing the receptor; membranes made from them
T2 sequence (P29275 1-332): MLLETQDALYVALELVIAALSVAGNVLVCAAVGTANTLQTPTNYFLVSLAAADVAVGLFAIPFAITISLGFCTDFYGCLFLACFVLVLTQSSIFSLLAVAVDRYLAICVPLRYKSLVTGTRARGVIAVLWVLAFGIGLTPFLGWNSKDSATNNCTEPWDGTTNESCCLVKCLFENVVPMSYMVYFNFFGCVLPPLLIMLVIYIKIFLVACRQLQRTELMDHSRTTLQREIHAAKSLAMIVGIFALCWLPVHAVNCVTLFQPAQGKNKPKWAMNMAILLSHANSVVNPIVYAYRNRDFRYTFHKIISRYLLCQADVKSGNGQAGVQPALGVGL
From the text: as §1
Measurement of A2b Binding Affinity
The reported affinity of the compounds of the invention for the human A2b adenosine receptor was determined experimentally using a radioligand filtration binding assay. This assay measures the amount of binding of a tritiated proprietary A2b receptor antagonist, in the presence and absence of a compound of the invention, to membranes made from HEK293 cells recombinantly expressing the human A2b adenosine receptor (Perkin Elmer, Cat. No. ES-013-C).
148 μL (135 μg/mL) membranes and 2 μL test compounds were transferred to individual wells of a 96-well polypropylene assay plate and incubated for 15 to 30 minutes at room temperature with agitation. Tritiated radioligand was diluted to a concentration of 14 nM in assay buffer (phosphate buffered saline without Magnesium and Calcium, pH 7.4; GE Healthcare Life Sciences, Cat. No. SH30256.01) and then 50 μL of the solution were transferred to each well of the assay plate. To define total and non-specific binding, wells containing 1% DMSO and 20 μM N-ethylcarboxamidoadenosine (Tocris Bioscience, Cat. No. 1691) respectively, were also included. The wells of the assay plate were incubated at room temperature for 60 minutes with agitation, then filtered using a FilterMate Harvester® (Perkin Elmer) or similar equipment through a UniFilter-96® PEI coated plate (Perkin Elmer Cat. No. 6005274 or 6005277). Filtering was achieved by aspirating the contents of the assay plate for 5 seconds, then washing and aspirating the contents three times with ice-cooled wash buffer (assay buffer supplemented with 0.0025% Brij58) and allowing the vacuum manifold to dry the plate for 30 seconds. The filter plate was incubated for at least 1 hour at 55° C. and allowed to dry. The bottom of the filter plate was then sealed with backing tape. 40 μL Ultima Gold™ (Perkin Elmer, Cat. No. 6013329) was added to each well of the filter plate and the top of the plate was sealed with TopSeal-A PLUS® clear plate seal (Perkin Elmer, Cat. No. 6050185). The plates were then incubated for at least 20 minutes, and then the amount of radioactivity remaining in each well was determined using a TopCount® (Perkin Elmer) scintillation counter. After normalization to total and non-specific binding, the percent effect at each compound concentration was calculated. The plot of percent effect versus the log of compound concentration was analyzed electronically using a 4-parameter logistic fit based on the Levenberg-Marquardt algorithm to generate IC50 values.

T1 sequence (P29274 whole entry): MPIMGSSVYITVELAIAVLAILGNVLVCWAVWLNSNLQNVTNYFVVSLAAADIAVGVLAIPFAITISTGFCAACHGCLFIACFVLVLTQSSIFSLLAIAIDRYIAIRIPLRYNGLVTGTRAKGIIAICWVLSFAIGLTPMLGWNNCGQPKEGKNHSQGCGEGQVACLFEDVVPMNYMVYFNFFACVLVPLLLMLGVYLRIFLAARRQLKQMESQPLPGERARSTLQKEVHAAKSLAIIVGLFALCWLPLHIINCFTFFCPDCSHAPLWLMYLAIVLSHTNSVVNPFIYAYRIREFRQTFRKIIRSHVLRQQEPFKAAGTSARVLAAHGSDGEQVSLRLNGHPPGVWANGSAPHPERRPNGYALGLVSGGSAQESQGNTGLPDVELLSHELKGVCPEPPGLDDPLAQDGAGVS

IC50 [1] [nM]	IC50 [2] [nM]	Structure (SMILES)
0.9	389	Cc1c(-c2ncco2)nc(N)n2nc([C@@H]3CCCN(c4cnn(C5CCOCC5)c4)C3)nc12 [Example 3.6, (R)-8-methyl-7-(oxazol-2-yl)-2-(1-(1-(tetrahydro-2H-pyran-4-yl)-1H-pyrazol-4-yl)piperidin-3-yl)-[1,2,4]triazolo[1,5-c]pyrimidin-5-amine]
143	2590	Cc1c(-c2ncco2)nc(N)c2nc(C3CCC(C)(O)C3)nn12 (single isomer, unassigned) [Example 8.7, (1R,3S and 1S,3R) or (1R,3R and 1S,3S)-3-(8-amino-5-methyl-6-(oxazol-2-yl)-[1,2,4]triazolo[1,5-a]pyrazin-2-yl)-1-methylcyclopentan-1-ol]
29.2	542	Cc1c(-c2cccc(F)c2)nc(N)n2nc([C@@H]3CCCN(c4cnn(CC(C)(C)O)c4)C3)nc12 [Example 3.11, (R)-1-(4-(3-(5-amino-7-(3-fluorophenyl)-8-methyl-[1,2,4]triazolo[1,5-c]pyrimidin-2-yl)piperidin-1-yl)-1H-pyrazol-1-yl)-2-methylpropan-2-ol]
2.1	535	Cc1c(-c2ncco2)nc(N)n2nc([C@@H]3CCCN(c4cnn(CC(C)(C)O)c4C)C3)nc12 [Example 3.10, (R)-1-(4-(3-(5-amino-8-methyl-7-(oxazol-2-yl)-[1,2,4]triazolo[1,5-c]pyrimidin-2-yl)piperidin-1-yl)-5-methyl-1H-pyrazol-1-yl)-2-methylpropan-2-ol]
0.2	116	Cc1cc(N2CCC[C@@H](c3nc4c(C)c(-c5ncco5)nc(N)n4n3)C2)cn(C(F)F)c1=O [Example 3.14, (R)-5-(3-(5-amino-8-methyl-7-(oxazol-2-yl)-[1,2,4]triazolo[1,5-c]pyrimidin-2-yl)piperidin-1-yl)-1-(difluoromethyl)-3-methylpyridin-2(1H)-one]

The remaining lines, values behind:

Structure (SMILES)	IC50 [1] [nM]	IC50 [2] [nM]
Cc1c(-c2ncco2)nc(N)c2nc([C@@H]3CCCN(c4cnn(C)c4)C3)nn12 (single isomer, unassigned) [Example 2.5-1]	14.8	770
CCn1cc(N2C[C@H](c3nc4c(C)c(-c5cccc(F)c5)nc(N)n4n3)CC[C@@H]2C)cn1 [Example 2.16, 2-((3R,6S)-1-(1-ethyl-1H-pyrazol-4-yl)-6-methylpiperidin-3-yl)-7-(3-fluorophenyl)-8-methyl-[1,2,4]triazolo[1,5-c]pyrimidin-5-amine]	8.8	82.6
Cc1c(-c2cccc(F)c2)nc(N)c2nc(C3CCCC(C)(O)C3)nn12 (single isomer, unassigned) [Example 8.10-1, (1R,3S or 1S,3R or 1R,3R or 1S,3S)-1-3-(8-amino-6-(3-fluorophenyl)-5-methyl-[1,2,4]triazolo[1,5-a]pyrazin-2-yl)-1-methylcyclohexan-1-ol]	175	2640
Cc1c(-c2ncco2)nc(N)n2nc([C@@H]3CCCNC3)nc12 [Example 2.3, (R)-8-methyl-7-(oxazol-2-yl)-2-(piperidin-3-yl)-[1,2,4]triazolo[1,5-c]pyrimidin-5-amine]	20.5	1040
Cc1c(-c2cccc(F)c2)nc(N)c2nc(C3CCCC(C)(O)C3)nn12 (single isomer, unassigned) [Example 8.10-2, (1R,3S or 1S,3R or 1R,3R or 1S,3S)-1-3-(8-amino-6-(3-fluorophenyl)-5-methyl-[1,2,4]triazolo[1,5-a]pyrazin-2-yl)-1-methylcyclohexan-1-ol]	363	2540
Cc1c(-c2ncco2)nc(N)n2nc(C3CCCC(C)(O)C3)nc12 (single isomer, unassigned) [Example 8.2-2, (1-R or S,3-R or S)-3-(5-amino-8-methyl-7-(oxazol-2-yl)-[1,2,4]triazolo[1,5-c]pyrimidin-2-yl)-1-methylcyclohexan-1-ol]	227	7310
Cc1c(-c2ncco2)nc(N)c2nc([C@H]3CCCN(c4cnn(C)c4)C3)nn12 (single isomer, unassigned) [Example 2.5-2]	37.3	7390
